Reference: patent publication US6133233A, “Peptide modulation of reperfusion injury” (Kansas State University Research Foundation, priority 1998, dated 2000)

How the values were obtained:
[1] = system: neutrophil oxidase activity; test: Superoxide anion production in whole neutrophils (SOD-inhibitable ferricytochrome c reduction, PMA); format: cell-based; conditions: concentrations 5-10 μM
Protocol: (§1) In these experiments, superoxide anion production by neutrophils was determined by the superoxide dismutase-inhibitable reduction of ferricytochrome c.
(§2) Four samples were prepared for each animal: (1) neutrophils (1×10^6 cells) in Hanks' balanced salt solution (HBSS; without phenol red) mixed with 100 μl (80 μM) of ferricytochrome c, 10 μl (0.1 μg) phorbol myristate acetate (PMA), and 100 μl (300 U) of superoxide dismutase (SOD); (2) cells treated with ferricytochrome c only; (3) cells treated with ferricytochrome c and PMA; and (4) cells treated with ferricytochrome c and SOD. The mixtures were incubated at 39° C. for 20 min. and then centrifuged at 4° C. (350×g) for 5 min. Cell-free supernatant (200 μl) was transferred to flat-bottom 96-well plates, and OD was read at 550 nm using HBSS as the blank. Production of superoxide anion was calculated using the following formula: OD of [(3+4)-(1+2)]×190.5=nm superoxide/1 ×10^6 cells/20 min.

[2] = system: leukocyte adherence and extravasation; conditions: cited from earlier work
intact human neutrophils = test: Superoxide anion generation in intact human neutrophils; format: cell-based
Protocol: as §1, §2

reactive oxygen species = test: Reactive oxygen (oxidant) production after mesenteric ischemia-reperfusion, dihydrorhodamine 123 intravital fluorescence; format: in vivo, rat; conditions: rats
Protocol: (§3) In this example, the efficiency of PR-39 (SEQ ID NO: 1) was tested in an in vivo model of reperfusion. Measurements of reactive oxygen release, neutrophil adherence to postcapillary venules and neutrophil emigration through venular endothelium, and vascular leakage were made in the presence and absence of PR-39 (SEQ ID No. 1).
(§4) In this example, male Sprague-Dawley rats weighing 220-250 g each were used. The rats were anesthetized by intraperitoneal injection of pentobarbital (30-40 mg/kg rat body weight) and the jugular vein of each rat was cannulated for reagent injection. The carotid artery of each rat was also cannulated for measurements of mean arterial blood pressure using a pressure transducer (Model P23a, Statham) and physiological recorder (Grass Instruments). […] The images were captured with a charge-coupled device camera (Model C2400-60, Hamamatsu Photonics) which was mounted on the microscope, projected onto a television monitor (Model PVM-2030, Sony) and recorded using a videocassette recorder (Model HS-U65, Mitsubishi). […]
(§5) Single, unbranched venules with diameters between 25-35 μm and lengths longer than 150 μm (both measured with a video caliper, Microcirculation Research Institute, Texas A&M University) were selected for the studies. […]
In more detail, generation of reactive oxygen levels were measured by the dihydrorhodamine 123 dye. […]

venular protein leakage = test: Albumin leakage through mesenteric venules (vascular integrity) after ischemia-reperfusion; format: in vivo, rat; conditions: rats, PR-39 pretreatment
Protocol: An assessment of vascular integrity was made by quantification of albumin leakage through mesenteric venules. Three groups of Sprague-Dawley rats (6 rats/group and respectively labeled control, I/R and I/R+PR-39) were obtained. […] The control group was subjected to a similar surgical preparation, but without occlusion of the mesenteric artery or PR-39 (SEQ ID No. 1) administration. Fifty mg/kg fluorescein isothiocyanate-labeled bovine albumin was administered IV to each of the rats of each group, 15 min. prior to release of occlusion of the rats of the I/R and I/R+PR-39 (SEQ ID No. 1) groups. Fluorescence intensities within three segments of the venule under study (Iv) and in three adjacent areas of interstitium (Ii) were detected using a SIT camera (Model C-2400-08; Hamamatsu Photonics). Measurements were made at the basal, 20-30 min., and 50-60 min. time points using a computer-assisted digital imaging processor (NIH Image 1.35 on a Macintosh computer). An index of albumin leakage was expressed as the ratio of Ii to Iv at each time.

[3] = system: bovine pulmonary artery endothelial (BPAE) cells; test: Superoxide production in high K+ treated BPAE cells (dichlorodihydrofluorescein); format: cell-based; conditions: 10 μM, 30 min
Protocol: PR-39 (SEQ ID No. 1) was also tested in a cell other than neutrophils, namely bovine pulmonary artery endothelial (BPAE) cells. In these cells, membrane depolarization induced by high K^+ treatment results in the production of superoxide anion by an endothelial NADPH oxidase enzyme that may be similar to the oxidase found in neutrophils. In these experiments, cultured BPAE cells were loaded with an oxidation-sensitive dye, dichlorodihydrofluorescein, then treated with high K^+, plus or minus PR-39 (SEQ ID No. 1) or PR-26 (SEQ ID No. 2), for 30 min. Cells were then scraped, pelleted, washed, and sonicated. Fluorescence of the supernatant was then measured to assess superoxide production.

[4] = system: leukocyte emigration through venular endothelium; test: Leukocyte emigration through venular endothelium after ischemia-reperfusion; format: in vivo, rat; conditions: rats, pretreatment with about 5 μM
Protocol: as §3
as §4, with “injection.” for “injection. The carotid artery of each rat was also cannulated for measurements of mean arterial blood pressure using a pressure transducer (Model P23a, Statham) and physiological recorder (Grass Instruments).”
as §5
(§6) The number of adherent and transmigrating leukocytes was determined off-line using videotaped images. […] Adherent leukocytes were expressed as the number per 100 μm length of venule. The number of emigrating leukocytes were also determined off-line and were expressed as the number per microscopic field.

neutrophil chemotaxis = test: Neutrophil microchemotaxis assay; format: cell-based; conditions: rat neutrophils; PR-39 10 μM
Excerpt: A microchemotaxis assay was used to examine the effect of PR-39 (SEQ ID No. 1) and another basic, PXXP-containing antimicrobial peptide, Bac5 (SEQ ID No. 7), on neutrophil chemotaxis alone and in combination. Whole blood was obtained from 250-350 g Sprague-Dawley rats by terminal cardiac puncture into acid citrate dextrose solution. Neutrophils were isolated by dextran sedimentation, followed by density-gradient centrifugation and hypotonic lysis to remove contaminating erythrocytes. Micropore filters (5 μM-pore polycarbonate membrane) were used to separate the lower and upper chambers of the microchemotaxis chamber. Attractants to be tested were diluted in RPMI medium and added (35 μl) to the lower wells of the chamber; 50 μl of the cell suspension ([…]) was added to the upper chamber. Chambers were placed in a humidified atmosphere of 5% CO2 in air at 37° C. for 40 min. Cells on the underside of the filters were fixed, stained, and counted using high-power brightfield microscopy. For each sample, four test wells containing chemoattractant were used. The total number of neutrophils in five fields was counted for each well. All results are expressed as a chemotaxis index defined as […].

[5] = system: leukocyte adherence to mesenteric venular endothelium; test: Leukocyte adherence to mesenteric venular endothelium after ischemia-reperfusion; format: in vivo, rat; conditions: rats, pretreatment with about 5 μM
Protocol: as §3
as §4, with “injection.” for “injection. The carotid artery of each rat was also cannulated for measurements of mean arterial blood pressure using a pressure transducer (Model P23a, Statham) and physiological recorder (Grass Instruments).”
as §5, §6

[6] = 2 μM adenosine, cat mesenteric model

## Bac7: cationic, proline-rich, PXXP-containing peptide (RRIRPRPPRLPRPRPRPLYC)
[1]
  Inhibition of neutrophil oxidase activity (superoxide anion generation in intact neutrophils): inhibition of superoxide anion generation

## Nc1ncnc2c1ncn2[C@@H]1O[C@H](CO)[C@@H](O)[C@H]1O [adenosine]
[2]; [6]
  Reduction of reperfusion injury-induced adhesion of neutrophils: 65%
  Reduction of reperfusion injury-induced extravasation of neutrophils: 32%
[2]; adenosine treatment, literature
  Reduction of oxidant release: 20%

## Bac5: basic, PXXP-containing antimicrobial peptide (RFRPPIRRPPIRPPFYPPFRPPIRPPIFPPIRPPFRPPLGPFP)
[1]
  Inhibition of neutrophil oxidase activity (superoxide anion generation in intact neutrophils): inhibition of superoxide anion generation

## C7: non-naturally occurring, cationic, PXXP-containing peptide (RRGPRHPQTRLPRPLPDP)
Intact human neutrophils
  Inhibition of superoxide anion generation in intact human neutrophils: inhibition of superoxide anion generation

## PR-39: proline/arginine-rich peptide of 39 residues (29/39 proline and arginine), most preferred peptide (RRRPRPPYLPRPRPPPFFPPRLPPRIPPGFPPRFPPRFP)
Reactive oxygen species; PR-39 pretreatment, comparison with adenosine
  Oxidant release (reactive oxygen production): complete prevention of oxidant release
Reactive oxygen species; about 5 μM PR-39 pre-ischemia, 20 min ischemia, 30 minutes after resumption of mesenteric venular circulation
  Oxidant production: significantly inhibited
Venular protein leakage
  Vascular integrity (albumin leakage index Ii/Iv): prevented loss of vascular integrity
[3]
  Oxidase activity (superoxide production) in pulmonary endothelium: decrease oxidase activity
[4]; basal
  Basal neutrophil emigration: appeared to be diminished
[4]; both post-release time points
  Transvascular neutrophil emigration: no migrating neutrophils observed
Neutrophil chemotaxis
  Neutrophil chemotaxis, examined alone: chemotactic for neutrophils
[5]
  Neutrophil adhesion to venular endothelium: no apparent endothelium neutrophil interaction in excess of basal levels
[1]
  Inhibition of neutrophil oxidase activity (superoxide anion generation in intact neutrophils): inhibition of superoxide anion generation

## platelet activating factor [PAF, reference compound]
Neutrophil chemotaxis
  Neutrophil chemotaxis, examined alone: chemotactic for neutrophils
